Experimental data as given in ChEMBL document CHEMBL6071142, “Isoalantolactone/hydroxamic acid hybrids as potent dual STAT3/HDAC inhibitors and self-assembled nanoparticles for cancer therapy” (Eur J Med Chem, 2024).

Legend:
A549 [1] = assay: cells; format: functional, cell-based; conditions: Homo sapiens, A549, 72 h
Description: Antiproliferative activity against human A549 cells assessed as inhibition of cell proliferation incubated for 72 hrs by CCK-8 assay

[2] = target: T1, Protein deacetylase HDAC6 (Homo sapiens, UniProt Q9UBN7); assay: Inhibition of recombinant human HDAC6 using Boc-Lys (acetyl)-AMC as substrate preincubated with compound for 1 hr followed by substrate addition and measured after 30 mins by microplate reader assay
T1 sequence (Q9UBN7 whole entry): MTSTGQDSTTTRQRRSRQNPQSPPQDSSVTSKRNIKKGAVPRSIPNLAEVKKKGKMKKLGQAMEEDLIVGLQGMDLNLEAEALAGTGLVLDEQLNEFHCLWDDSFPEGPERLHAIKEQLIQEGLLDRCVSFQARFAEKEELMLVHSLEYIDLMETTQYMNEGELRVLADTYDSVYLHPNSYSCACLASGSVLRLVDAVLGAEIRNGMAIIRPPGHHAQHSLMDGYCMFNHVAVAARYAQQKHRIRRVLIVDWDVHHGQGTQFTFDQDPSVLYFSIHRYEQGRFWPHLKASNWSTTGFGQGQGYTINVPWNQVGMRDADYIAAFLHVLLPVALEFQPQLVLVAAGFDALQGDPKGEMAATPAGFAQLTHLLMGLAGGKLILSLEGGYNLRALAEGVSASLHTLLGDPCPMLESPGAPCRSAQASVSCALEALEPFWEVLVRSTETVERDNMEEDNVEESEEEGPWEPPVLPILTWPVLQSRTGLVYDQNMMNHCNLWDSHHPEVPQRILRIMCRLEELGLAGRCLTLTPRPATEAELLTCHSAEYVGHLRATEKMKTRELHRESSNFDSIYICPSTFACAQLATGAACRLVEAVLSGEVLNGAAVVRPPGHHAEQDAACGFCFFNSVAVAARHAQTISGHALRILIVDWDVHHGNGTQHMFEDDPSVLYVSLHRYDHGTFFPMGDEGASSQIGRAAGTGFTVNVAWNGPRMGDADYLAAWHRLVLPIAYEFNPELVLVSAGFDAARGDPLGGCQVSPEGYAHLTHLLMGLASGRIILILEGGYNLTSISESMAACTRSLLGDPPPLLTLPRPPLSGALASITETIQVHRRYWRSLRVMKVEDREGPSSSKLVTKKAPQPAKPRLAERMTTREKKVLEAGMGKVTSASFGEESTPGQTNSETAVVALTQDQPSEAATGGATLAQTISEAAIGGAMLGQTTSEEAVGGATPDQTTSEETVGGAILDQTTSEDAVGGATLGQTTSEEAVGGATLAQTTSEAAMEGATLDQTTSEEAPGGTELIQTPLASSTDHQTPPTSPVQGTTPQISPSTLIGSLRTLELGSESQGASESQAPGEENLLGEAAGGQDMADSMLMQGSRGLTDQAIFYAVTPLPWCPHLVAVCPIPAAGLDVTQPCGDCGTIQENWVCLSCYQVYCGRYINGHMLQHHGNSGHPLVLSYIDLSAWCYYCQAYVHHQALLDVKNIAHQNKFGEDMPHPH

Histone deacetylase 2 = Histone deacetylase 2 (Homo sapiens, UniProt Q92769); assay: Inhibition of recombinant human HDAC2 using Boc-Lys (acetyl)-AMC as substrate preincubated with compound for 1 hr followed by substrate addition and measured after 30 mins by microplate reader assay
Chain of Histone deacetylase 2 (Q92769 whole entry): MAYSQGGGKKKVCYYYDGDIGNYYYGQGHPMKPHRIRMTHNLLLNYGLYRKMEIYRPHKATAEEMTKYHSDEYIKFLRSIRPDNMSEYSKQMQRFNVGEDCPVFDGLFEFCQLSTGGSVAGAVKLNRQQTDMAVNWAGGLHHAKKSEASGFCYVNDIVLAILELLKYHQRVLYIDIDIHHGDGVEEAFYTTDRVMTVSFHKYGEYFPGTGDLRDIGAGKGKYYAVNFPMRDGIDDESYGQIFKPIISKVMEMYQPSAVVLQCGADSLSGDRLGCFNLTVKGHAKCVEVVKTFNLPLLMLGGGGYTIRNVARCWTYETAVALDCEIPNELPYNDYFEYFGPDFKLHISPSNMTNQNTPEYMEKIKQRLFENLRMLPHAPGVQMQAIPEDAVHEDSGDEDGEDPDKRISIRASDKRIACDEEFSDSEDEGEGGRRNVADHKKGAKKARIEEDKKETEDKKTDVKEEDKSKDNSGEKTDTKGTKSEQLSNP

Histone deacetylase 3 = Histone deacetylase 3 (Homo sapiens, UniProt O15379); assay: Inhibition of recombinant human HDAC3 using Boc-Lys (acetyl)-AMC as substrate preincubated with compound for 1 hr followed by substrate addition and measured after 30 mins by microplate reader assay
Chain of Histone deacetylase 3 (O15379 whole entry): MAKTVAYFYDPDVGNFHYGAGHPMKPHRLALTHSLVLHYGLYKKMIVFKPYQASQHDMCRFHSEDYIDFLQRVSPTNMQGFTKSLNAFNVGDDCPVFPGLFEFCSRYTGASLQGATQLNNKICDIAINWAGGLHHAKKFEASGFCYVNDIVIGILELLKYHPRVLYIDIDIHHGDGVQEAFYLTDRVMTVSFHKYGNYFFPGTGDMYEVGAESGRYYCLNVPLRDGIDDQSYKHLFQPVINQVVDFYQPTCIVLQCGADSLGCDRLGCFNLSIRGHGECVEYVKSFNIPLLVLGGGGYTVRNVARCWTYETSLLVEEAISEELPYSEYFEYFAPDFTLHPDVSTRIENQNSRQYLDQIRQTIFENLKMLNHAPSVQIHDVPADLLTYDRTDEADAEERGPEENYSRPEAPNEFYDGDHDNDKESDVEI

Histone deacetylase 1 = Histone deacetylase 1 (Homo sapiens, UniProt Q13547); assay: Inhibition of recombinant human HDAC1 using Boc-Lys (acetyl)-AMC as substrate preincubated with compound for 1 hr followed by substrate addition and measured after 30 mins by microplate reader assay
Chain of Histone deacetylase 1 (Q13547 whole entry): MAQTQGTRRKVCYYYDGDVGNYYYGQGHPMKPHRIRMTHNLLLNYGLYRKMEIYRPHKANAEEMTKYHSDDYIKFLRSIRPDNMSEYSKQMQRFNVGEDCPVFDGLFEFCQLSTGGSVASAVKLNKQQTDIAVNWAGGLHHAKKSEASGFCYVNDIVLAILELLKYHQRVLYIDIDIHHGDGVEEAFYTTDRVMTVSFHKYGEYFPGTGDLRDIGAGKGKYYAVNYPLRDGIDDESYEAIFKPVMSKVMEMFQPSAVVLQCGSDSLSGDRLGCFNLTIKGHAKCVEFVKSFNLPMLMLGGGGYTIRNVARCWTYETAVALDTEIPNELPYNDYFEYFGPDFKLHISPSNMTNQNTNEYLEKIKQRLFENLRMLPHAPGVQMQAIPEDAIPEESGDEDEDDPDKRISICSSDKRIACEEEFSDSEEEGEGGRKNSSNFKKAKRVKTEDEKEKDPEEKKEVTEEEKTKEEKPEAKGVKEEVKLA

[3] = target: Signal transducer and activator of transcription 3 (Homo sapiens, UniProt P40763); assay: Binding affinity to STAT3 (unknown origin) assessed as dissociation constant by SPR assay
Chain of Signal transducer and activator of transcription 3 (P40763 whole entry): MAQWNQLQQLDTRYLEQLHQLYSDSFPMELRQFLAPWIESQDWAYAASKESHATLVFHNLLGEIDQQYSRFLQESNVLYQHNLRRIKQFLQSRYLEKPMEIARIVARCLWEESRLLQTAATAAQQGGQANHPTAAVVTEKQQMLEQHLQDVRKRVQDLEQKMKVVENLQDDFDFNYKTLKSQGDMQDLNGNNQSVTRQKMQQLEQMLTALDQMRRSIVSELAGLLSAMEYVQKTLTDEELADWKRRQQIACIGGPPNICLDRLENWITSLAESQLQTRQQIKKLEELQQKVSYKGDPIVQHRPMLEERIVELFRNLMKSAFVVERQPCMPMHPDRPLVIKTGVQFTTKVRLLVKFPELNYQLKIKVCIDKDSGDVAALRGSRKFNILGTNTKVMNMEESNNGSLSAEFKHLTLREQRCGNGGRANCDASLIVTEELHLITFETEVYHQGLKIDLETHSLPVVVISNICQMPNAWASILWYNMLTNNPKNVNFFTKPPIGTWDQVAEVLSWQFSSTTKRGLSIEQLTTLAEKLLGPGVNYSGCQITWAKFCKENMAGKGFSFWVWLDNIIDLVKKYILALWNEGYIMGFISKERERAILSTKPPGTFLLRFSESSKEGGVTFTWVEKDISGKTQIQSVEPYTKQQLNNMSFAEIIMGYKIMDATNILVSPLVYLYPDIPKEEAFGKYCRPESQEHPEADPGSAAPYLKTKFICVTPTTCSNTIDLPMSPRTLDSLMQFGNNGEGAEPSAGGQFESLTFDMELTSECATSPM

A549 [4] = assay: Induction of apoptosis in human A549 cells assessed as viable cells at 2 uM incubated for 24 hrs by Annexin V-FITC/PI staining based flow cytometric analysis (reference value: 95.08%); format: functional
A549 [5] = assay: Induction of apoptosis in human A549 cells assessed as necrotic cells at 2 uM incubated for 24 hrs by Annexin V-FITC/PI staining based flow cytometric analysis (reference value: 1.20%); format: functional
A549 [6] = assay: Induction of apoptosis in human A549 cells assessed as late apoptotic cells at 2 uM incubated for 24 hrs by Annexin V-FITC/PI staining based flow cytometric analysis (reference value: 2.18%); format: functional
A549 [7] = assay: In vivo antitumor activity against human A549 cells xenografted in female BALB/c nu/nu mouse assessed as tumor volume at 10 mg/kg, iv administered every 3 days and measured on 18 day relative to control; format: functional; conditions: time 3 day
HCT-116 = assay: cells; conditions: Homo sapiens, HCT-116, 72 h
Description: Antiproliferative activity against human HCT-116 cells assessed as inhibition of cell proliferation incubated for 72 hrs by CCK-8 assay

A549 [8] = assay: Induction of apoptosis in human A549 cells assessed as early apoptotic cells at 2 uM incubated for 24 hrs by Annexin V-FITC/PI staining based flow cytometric analysis (reference value: 1.53%); format: functional
HeLa = assay: cells; format: functional, cell-based; conditions: Homo sapiens, 72 h
Description: Antiproliferative activity against human Hela cells assessed as inhibition of cell proliferation incubated for 72 hrs by CCK-8 assay

HepG2 = assay: Antiproliferative activity against human HepG2 cells assessed as inhibition of cell proliferation incubated for 72 hrs by CCK-8 assay; format: functional, cell-based; conditions: HepG2, 72 h

Row | IC50 (A549 [1]) [nM] | IC50 [2] [nM] | IC50 (Histone deacetylase 2) [nM] | IC50 (Histone deacetylase 3) [nM] | IC50 (Histone deacetylase 1) [nM] | Kd [3] [nM] | IC50 (HCT-116) [nM] | IC50 (HeLa) [nM] | IC50 (HepG2) [nM] | Compound | Activity (A549 [4]) [%] | Activity (A549 [5]) [%] | Activity (A549 [6]) [%] | Activity (A549 [7]) [%] | Activity (A549 [8]) [%] | viability at 2 µM (A549 [4]; Homo sapiens, A549, read-out: Activity) [%]
1 | > 10000 | 267 | 844 | 441 | 568 | > 50000 | – | – | – | C=C1C(=O)O[C@@H]2C[C@@]3(C)CC[C@@H](OC(=O)[C@H](C)NC(=O)c4ccc(C(=O)NO)cc4)C(=C)[C@@H]3C[C@H]12 | – | – | – | – | – | –
2 | 4330 | 86.9 | 313 | 103 | 197 | 13500 | – | – | – | C=C1C(=O)O[C@@H]2C[C@@]3(C)CC[C@@H](OC(=O)[C@@H](C)NC(=O)c4cccc(/C=C/C(=O)NO)c4)C(=C)[C@@H]3C[C@H]12 | – | – | – | – | – | –
3 | 5610 | > 1000 | > 1000 | > 1000 | 453 | 6880 | – | – | – | C=C1C(=O)O[C@@H]2C[C@@]3(C)CC[C@@H](OC(=O)[C@@H](CC(C)C)NC(=O)c4ccc(C(=O)Nc5ccccc5N)cc4)C(=C)[C@@H]3C[C@H]12 | – | – | – | – | – | –
4 | 2240 | > 1000 | 507 | 473 | 122 | 4960 | – | – | – | C=C1C(=O)O[C@@H]2C[C@@]3(C)CC[C@@H](OC(=O)[C@@H](C)NC(=O)c4ccc(C(=O)Nc5ccccc5N)cc4)C(=C)[C@@H]3C[C@H]12 | – | – | – | – | – | –
5 | 3340 | > 1000 | > 1000 | > 1000 | > 1000 | 8960 | – | – | – | C=C1C(=O)O[C@@H]2C[C@@]3(C)CC[C@@H](OC(=O)[C@H](C)NC(=O)c4ccc(C(=O)Nc5ccccc5N)cc4)C(=C)[C@@H]3C[C@H]12 | – | – | – | – | – | –
6 | > 10000 | > 1000 | > 1000 | > 1000 | > 1000 | 39300 | – | – | – | C=C1C(=O)O[C@@H]2C[C@@]3(C)CC[C@@H](OC(=O)CNC(=O)c4ccc(C(=O)Nc5ccccc5N)cc4)C(=C)[C@@H]3C[C@H]12 | – | – | – | – | – | –
7 | > 10000 | > 1000 | > 1000 | > 1000 | > 1000 | > 50000 | – | – | – | C=C1C(=O)O[C@@H]2C[C@@]3(C)CC[C@@H](OC(=O)[C@H](CC(C)C)NC(=O)c4ccc(C(=O)Nc5ccccc5N)cc4)C(=C)[C@@H]3C[C@H]12 | – | – | – | – | – | –
8 | 6400 | – | 212 | – | – | > 50000 | – | – | – | Nc1ccc(F)cc1NC(=O)c1ccc(CNC(=O)/C=C/c2cccnc2)cc1 | – | – | – | – | – | –
9 | > 10000 | 162 | > 1000 | > 1000 | 748 | 20100 | – | – | – | C=C1C(=O)O[C@@H]2C[C@@]3(C)CC[C@@H](OC(=O)[C@@H](C)NC(=O)c4ccc(C(=O)NO)cc4)C(=C)[C@@H]3C[C@H]12 | – | – | – | – | – | –
10 | 1870 | 45.3 | 92.7 | 63.1 | 86.5 | – | – | – | – | C=C1C(=O)O[C@@H]2C[C@@]3(C)CC[C@@H](OC(=O)CNC(=O)c4cccc(/C=C/C(=O)NO)c4)C(=C)[C@@H]3C[C@H]12 | – | – | – | – | – | –
11 | – | – | – | – | – | > 50000 | 1870 | – | – | O=C(CCCCCCC(=O)Nc1ccccc1)NO [VORINOSTAT] | 67.04 | 2.58 | 24.68 | 61 | 5.72 | –
12 | 4530 | 64 | 342 | 272 | 193 | 3890 | – | – | – | C=C1C(=O)O[C@@H]2C[C@@]3(C)CC[C@@H](OC(=O)[C@@H](C)NC(=O)c4ccc(/C=C/C(=O)NO)cc4)C(=C)[C@@H]3C[C@H]12 | – | – | – | – | – | –
13 | 4530 | 62.4 | 404 | 113 | 206 | 12300 | – | – | – | C=C1C(=O)O[C@@H]2C[C@@]3(C)CC[C@@H](OC(=O)[C@H](C)NC(=O)c4cccc(/C=C/C(=O)NO)c4)C(=C)[C@@H]3C[C@H]12 | – | – | – | – | – | –
14 | > 10000 | > 1000 | > 1000 | > 1000 | > 1000 | > 50000 | – | – | – | C=C1C(=O)O[C@@H]2C[C@@]3(C)CC[C@@H](OC(=O)[C@H](NC(=O)c4ccc(C(=O)Nc5ccccc5N)cc4)C(C)C)C(=C)[C@@H]3C[C@H]12 | – | – | – | – | – | –
15 | 2560 | 87.5 | 189 | 107 | 202 | > 50000 | – | – | – | C=C1C(=O)O[C@@H]2C[C@@]3(C)CC[C@@H](OC(=O)CNC(=O)c4ccc(C(=O)NO)cc4)C(=C)[C@@H]3C[C@H]12 | – | – | – | – | – | –
16 | > 10000 | > 1000 | > 1000 | > 1000 | > 1000 | > 50000 | – | – | – | C=C1C(=O)O[C@@H]2C[C@@]3(C)CC[C@@H](OC(=O)[C@H](Cc4ccccc4)NC(=O)c4ccc(C(=O)Nc5ccccc5N)cc4)C(=C)[C@@H]3C[C@H]12 | – | – | – | – | – | –
17 | > 10000 | > 1000 | > 1000 | > 1000 | > 1000 | 22600 | – | – | – | C=C1C(=O)O[C@@H]2C[C@@]3(C)CC[C@@H](OC(=O)[C@H](CC)NC(=O)c4ccc(C(=O)Nc5ccccc5N)cc4)C(=C)[C@@H]3C[C@H]12 | – | – | – | – | – | –
18 | 1810 | > 1000 | > 1000 | > 1000 | > 1000 | 46100 | 2610 | 4380 | 7250 | C=C1C(=O)O[C@@H]2C[C@@]3(C)CCCC(=C)[C@@H]3C[C@H]12 [ISOALANTOLACTONE] | – | 1.82 | 10.91 | – | 3.67 | 83.6
19 | 6670 | > 1000 | > 1000 | > 1000 | 6510 | 20700 | – | – | – | C=C1C(=O)O[C@@H]2C[C@@]3(C)CC[C@@H](OC(=O)[C@@H](CC)NC(=O)c4ccc(C(=O)Nc5ccccc5N)cc4)C(=C)[C@@H]3C[C@H]12 | – | – | – | – | – | –
20 | 7470 | > 1000 | > 1000 | > 1000 | 622 | 4760 | – | – | – | C=C1C(=O)O[C@@H]2C[C@@]3(C)CC[C@@H](OC(=O)[C@@H](Cc4ccccc4)NC(=O)c4ccc(C(=O)Nc5ccccc5N)cc4)C(=C)[C@@H]3C[C@H]12 | – | – | – | – | – | –
21 | > 10000 | > 1000 | > 1000 | > 1000 | > 1000 | 17400 | – | – | – | C=C1C(=O)O[C@@H]2C[C@@]3(C)CC[C@@H](OC(=O)[C@@H](NC(=O)c4ccc(C(=O)Nc5ccccc5N)cc4)C(C)C)C(=C)[C@@H]3C[C@H]12 | – | – | – | – | – | –
